Blank lines part the entries; values can stand above or below the compound they belong to.
Tests used:
[1] = tested on: Myzus persicae (green peach aphid); assay: Example B19: comparison with state of the art, Myzus persicae, systemic/feeding activity, curative; type: in vivo; conditions: for Death rate (%) after 6 days (systemic action): pea seedling roots in test solution, curative
[2] = tested on: Tetranychus urticae (two-spotted spider mite); assay: Example B20: comparison with state of the art, Tetranychus urticae, feeding/residual contact activity, preventive; type: in vivo; conditions: for Death rate (%) after 8 days: bean leaf discs, mixed population, preventive
Source text: Activity Against Tetranychus urticae (Two-Spotted Spider Mite)
(Mixed Population, Feeding/Residual Contact Activity, Preventive)
Bean leaf discs on agar in 24-well microtiter plates are sprayed with test solutions. […] 8 days later, discs are checked for egg mortality, larval mortality, and adult mortality.

[3] = tested on: Thrips tabaci (onion thrips); assay: Example B18: comparison with state of the art, Thrips tabaci, feeding/residual contact activity, preventive; type: in vivo; conditions: for Death rate (%) after 6 days: sunflower leaf discs, mixed population, preventive
[4] = tested on: Myzus persicae (green peach aphid); assay: Example B16: comparison with state of the art, Myzus persicae, feeding/residual contact activity, preventive; type: in vivo; conditions: for Death rate (%) after 6 days: sunflower leaf discs, mixed population, preventive
[5] = tested on: Diabrotica balteata (corn root worm); assay: Example B17: comparison with state of the art, Diabrotica balteata, larvicide, growth regulation; type: in vivo; conditions: for Inhibition of growth (%) after 5 dsys: artificial diet MTP, L2 larvae
Protocol: After drying, the MTP's are infested with larvae (L2)(6-10 per well). After an incubation period of 5 days, samples are checked for growth regulation.

[6] = tested on: African bean aphid (Aphis craccivora); assay: Example B21: insecticide seed treatment of sugarbeet seeds, reduction of aphids; type: in vivo; conditions: infested after 14 days, counted 7 days after infestation
Protocol: Insecticide Seed Treatment Sugarbeet seeds are treated with test compounds at various rates (mg a.i./seed). The seeds are sown into pots filled with soil. After placing the seeds on the soil surface they are further covered with soil. Before and during the bioassays, the plants are grown under optimal greenhouse conditions. After 14 days, the plants are infested with African bean aphid (Aphis craccivora) by placing one infested pea seedling containing approximately 150 aphids of a population of mixed developmental stages onto each plant. Seven days after infestation, the number of aphids is counted per plant. Each treatment group is replicated 10 times. Each replicate contains 1 plant. In this test, compounds listed in Tables A, B, C, D, E and F above show good activity.

melting point: 229 to 230 °C
Structure (SMILES): CON1CCC2(CC1)NC(=O)C(c1cc(Br)c(F)cc1C)=C2O [Compound C19, 3-(5-Bromo-4-fluoro-2-methyl-phenyl)-4-hydroxy-8-methoxy-1,8-diaza-spiro[4.5]dec-3-en-2-one]

Structure (SMILES): CO[C@H]1CC[C@]2(CC1)NC(=O)C(c1cc(C)ccc1C)=C2OC(=O)C(C)(C)C [Compound I-1-b-20, reference compound]
Death rate (%) after 6 days (systemic action) ([1]; 200 ppm): 0%
Death rate (%) after 8 days ([2]; 12.5 ppm): 0%
Death rate (%) after 8 days ([2]; 50 ppm): 0%
Death rate (%) after 8 days ([2]; 200 ppm): 50%

Structure (SMILES): CON1CCC2(CC1)NC(=O)C(c1c(C)cc(C)cc1C)=C2O [Compound C2]
Death rate (%) after 6 days ([3]; 12.5 ppm): 90%
Death rate (%) after 6 days ([3]; 50 ppm): 100%
Death rate (%) after 6 days ([3]; 200 ppm): 100%
insecticidal action compared with the compound from the state of the art ([3]; vs compound Ia-32 of EP596298, Table B18): substantially better insecticidal action

Structure (SMILES): CON1CCC2(CC1)NC(=O)C(c1cc(C)ccc1C)=C2OC(=O)C(C)(C)C [Compound A9]
Death rate (%) after 6 days (systemic action) ([1]; 50 ppm): 50%
Death rate (%) after 6 days (systemic action) ([1]; 200 ppm): 80%
insecticidal action compared with the compound from the state of the art ([1]; vs compound I-1-b-20 of WO1998/05638, Table B19): substantially better insecticidal action
Death rate (%) after 8 days ([2]; 12.5 ppm): 50%
Death rate (%) after 8 days ([2]; 50 ppm): 80%
Death rate (%) after 8 days ([2]; 200 ppm): 80%
insecticidal action compared with the compound of the state of the art at low application rates ([2]; low application rates (50 and 12.5 ppm), vs compound I-1-b-20 of WO1998/05638): far superior
insecticidal action compared with the compound from the state of the art ([2]; vs compound I-1-b-20 of WO1998/05638, Table B20): substantially better insecticidal action

Structure (SMILES): CON1CCC2(CC1)NC(=O)C(c1cc(-c3ccc(Cl)cc3)ccc1C)=C2O [Compound C6]
Death rate (%) after 6 days ([4]; 12.5 ppm): 25%
Death rate (%) after 6 days ([4]; 50 ppm): 90%
insecticidal action compared with the compound from the state of the art ([4]; vs compound 1-1-a-16 of WO1999/48869, Table B16): substantially better insecticidal action
Inhibition of growth (%) after 5 dsys ([5]; 50 ppm): 50%
Inhibition of growth (%) after 5 dsys ([5]; 200 ppm): 75%
insecticidal action compared with the compound from the state of the art ([5]; vs compound 1-1-a-16 of WO1999/48869, Table B17): substantially better insecticidal action

Structure (SMILES): COC1CCC2(CC1)NC(=O)C(c1cc(-c3ccc(Cl)cc3)ccc1C)=C2O (centres unmarked) [Compound I-1-a-16]
Death rate (%) after 6 days ([4]; 12.5 ppm): 0%
Death rate (%) after 6 days ([4]; 50 ppm): 50%
Inhibition of growth (%) after 5 dsys ([5]; 50 ppm): 0%
Inhibition of growth (%) after 5 dsys ([5]; 200 ppm): 0%

Structure (SMILES): CO[C@H]1CC[C@]2(CC1)NC(=O)C(c1c(C)cc(C)cc1C)=C2O [Ia-32, reference compound]
Death rate (%) after 6 days ([3]; 12.5 ppm): 25%
Death rate (%) after 6 days ([3]; 50 ppm): 25%
Death rate (%) after 6 days ([3]; 200 ppm): 25%

Structure (SMILES): C=CCOC(=O)OC1=C(c2cc(C)ccc2C)C(=O)NC12CCN(OC)CC2 [Compound A5]
Efficacy, % (reduction of aphids compared to untreated control plants) ([6]; 0.03 mg a.i./seed): 37%
Efficacy, % (reduction of aphids compared to untreated control plants) ([6]; 0.1 mg a.i./seed): 97%
Efficacy, % (reduction of aphids compared to untreated control plants) ([6]; 0.3 mg a.i./seed): 99%
Efficacy, % (reduction of aphids compared to untreated control plants) ([6]; 0.6 mg a.i./seed): 100%

Structure (SMILES): CON1CCC2(CC1)NC(=O)C(c1cc(C)ccc1C)=C2O [Compound C1, 3-(2,5-dimethyl-phenyl)-4-hydroxy-8-methoxy-1,8-diaza-spiro[4.5]dec-3-en-2-one]
Efficacy, % (reduction of aphids compared to untreated control plants) ([6]; 0.03 mg a.i./seed): 65%
Efficacy, % (reduction of aphids compared to untreated control plants) ([6]; 0.1 mg a.i./seed): 96%
Efficacy, % (reduction of aphids compared to untreated control plants) ([6]; 0.3 mg a.i./seed): 99%
Efficacy, % (reduction of aphids compared to untreated control plants) ([6]; 0.6 mg a.i./seed): 99%

From patent publication US8415369B2, “Spiroheterocyclic pyrrolidine dione derivatives useful as pesticides” (Syngenta Crop Protection LLC, priority 2007, dated 2013)
